In PMC3539823 (Journal of medicinal chemistry, 2012):

Columns and labels:
[1] = system: P493 human lymphoma B cells; experiment: P493 cell proliferation assay; type: cell-based; conditions: P493-6, read-out: IC50 (growth of P493 cells)
[2] = mouse liver microsomes, phase I
[3] = target: T1, GLS (Homo sapiens, UniProt O94925); conditions: previously reported; cited from earlier work
T1 sequence (O94925 124-669 limits assumed): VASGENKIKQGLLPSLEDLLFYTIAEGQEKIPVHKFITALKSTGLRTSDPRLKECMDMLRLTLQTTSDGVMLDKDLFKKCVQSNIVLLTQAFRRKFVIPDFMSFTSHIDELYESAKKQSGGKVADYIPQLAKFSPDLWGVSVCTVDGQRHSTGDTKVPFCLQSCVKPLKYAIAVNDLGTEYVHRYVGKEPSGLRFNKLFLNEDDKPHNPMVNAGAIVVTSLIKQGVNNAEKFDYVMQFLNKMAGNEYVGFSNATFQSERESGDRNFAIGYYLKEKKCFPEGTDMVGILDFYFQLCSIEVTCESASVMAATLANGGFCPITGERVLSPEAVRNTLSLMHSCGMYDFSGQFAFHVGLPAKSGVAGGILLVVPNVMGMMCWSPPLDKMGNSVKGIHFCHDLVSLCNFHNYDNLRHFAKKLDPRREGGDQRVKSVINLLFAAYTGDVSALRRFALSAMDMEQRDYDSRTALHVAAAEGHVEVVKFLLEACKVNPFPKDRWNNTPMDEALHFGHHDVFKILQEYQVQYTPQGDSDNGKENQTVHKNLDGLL

| Compound | IC50 [1] [µM] | stability against microsomes in the presence of NADPH [2] | fold increase in IC50 value from 3 to 5 [3] [fold] |
| --- | --- | --- | --- |
| O=C(CCCCc1nnc(NC(=O)Cc2ccccc2)s1)NCCN1CCCC1 [Compound 29a, 5-(5-(2-phenylacetamido)-1,3,4-thiadiazol-2-yl)-N-(2-(pyrrolidin-1-yl)ethyl)pentanamide] | ~40 | completely stable | – |
| Nc1nnc(CCSCCc2nnc(N)s2)s1 [Compound 5, Bis-[2-(5-Amino-[1,3,4]thiadiazol-2-yl)-ethylsulfide]] | – | – | 50 |
| Nc1nnc(CCCCc2nnc(NC(=O)Cc3ccccc3)s2)s1 [Compound 11b, N-(5-(4-(5-amino-1,3,4-thiadiazol-2-yl)butyl)-1,3,4-thiadiazol-2-yl)-2-phenylacetamide] | – | completely stable | – |
